# “And” between values parts separate entries of the source, which are not always exact repeats. Equal entries are not always repeated.
# Test system: cos-7 cells
# Experiment: DNA transfection: luciferase expression relative to Lipofectamine 2000
# Type: cell-based
# Conditions: 300 ng Luciferase DNA per well, luciferase assay after 48 hours
# Method: 14,000 cos-7 cells (ATCC, Manassas, Va.) were seeded into each well of a solid white or clear 96 well plate (Corning-Costar, Kennebunk, Me.) and allowed to attached overnight in growth medium, composed of: 500 ml phenol red minus DMEM, 50 ml heat inactivated FBS, 5 ml penicillin/streptomycin (Invitrogen, Carlsbad, Calif.).
# A small liquot of lipid was tranferred to an Eppendorf tube. Based on the mass of the lipid in the tube, sterile 25 mM sodium acetate buffer was added to each tube to yield a concentration of 60 mg/ml. The resulting mixture was vortexed for approximately 20 minutes until the lipid was fully dissolved. DNA was prepared based on 300 ng DNA per well of a 96-well plate. 291 μg of Lc DNA was dissolved in 9210 μl of 25 mM sodium acetate buffer. Aliquots of 30 μl of DNA solution were added to each well expect for the last column which was reserved for the Lipo2000 standard. For the last column of the plate, 61 μg of DNA was added to 1940 μl Optimem. 150 μl of media/Optimem was added to each well of plates. 50 μl of lipid solution was aliquoted into wells of robot plate. The following amounts were aliquoted to obtain the correct ratios of DNA to lipid:
# In quadruplicate, 30 μl of lipid was aliquoted onto DNA in four rows for each ratio. For the Lipo2000 control (2.5 w/w ratio to DNA), 152.5 μg of Lipo sample was aliquoted into 1847.5 μl of Optimem. 30 μl of this solution was aliquoted onto DNA in the Optimem in the last columns of each plate. The plates were incubated for 15-20 minutes, and then 36.5 μl of lipid+DNA complexes was transferred into 150 μl of media/Optimem, then add to cells. The media was aspirated off the cells, and 105 μl of the lipid/DNA/media/Optimem solution was added to the cells. The luciferase assay was performed after 48 hours.
# Luminescence was analyzed using bright-glo assay kits (Promega). Briefly, 100 μl of bright-glo solution was added to each well of the microtiter plate containing media and cells. Luminescence was measured using a Mithras Luminometer (Berthold, Oak Ridge, Tenn.). In some cases, a neutral density filter (Chroma, Brattleboro, Vt.) was used to prevent saturation of the luminometer. A standard curve for Luciferase was generated by titration of Luciferase enzyme (Promega) into growth media in white microtiter plates. Luciferase in ng per well are calculated for each of the lipids at 2.5 w/w, 5 w/w, 10 w/w, 15 w/w, 20 w/w, and 25 w/w lipid to DNA based on the standard curve.
# The table below summarizes the data as a % of the luciferase activity obtained from the use of Lipofectamine 2000. The table indicates the best lipids for transfection.
SMILES,Luciferase expression as a percentage of that achieved using Lipofectamine 2000 (lipid/DNA 2.5 w/w),Luciferase expression as a percentage of that achieved using Lipofectamine 2000 (lipid/DNA 5 w/w),Luciferase expression as a percentage of that achieved using Lipofectamine 2000 (lipid/DNA 10 w/w),Luciferase expression as a percentage of that achieved using Lipofectamine 2000 (lipid/DNA 15 w/w),Luciferase expression as a percentage of that achieved using Lipofectamine 2000 (lipid/DNA 20 w/w),Luciferase expression as a percentage of that achieved using Lipofectamine 2000 (lipid/DNA 25 w/w)
CCCCCCCCCCOC(=O)CCN(CCC(=O)OCCCCCCCCCC)C[C@@H](C)O [LB21],0.7%,0.8%,0.7%,0.7%,0.7%,0.8%
CCCCCCCCCCOC(=O)CCN(CCC(=O)OCCCCCCCCCC)C[C@H](C)O [LB22],0.3%,0.3%,0.4%,0.4%,0.4%,0.4%
CCCCCCCCCCOC(=O)CCN(CCC(=O)OCCCCCCCCCC)CC(O)CO (stereo not drawn) [LB24],0.1%,0.2%,0.4%,0.1%,0.1%,0.1%
CCCCCCCCCCOC(=O)CCN(CCC(=O)OCCCCCCCCCC)C(CO)CO [LB25],0.8%,2.4%,2.6%,3.3%,2.3%,1.8%
CCCCCCCCCCOC(=O)CCN(CCC(=O)OCCCCCCCCCC)C(C)(CO)CO [LB26],0.1%,0.1%,0.1%,0.1%,0.1%,0.1%
CCCCCCCCCCOC(=O)CCN(CCCCO)CCC(=O)OCCCCCCCCCC [LB28],0.1%,0.1%,0.1%,0.1%,0.1%,0.1%
CCCCCCCCCCOC(=O)CCN(CCOCCO)CCC(=O)OCCCCCCCCCC [LB31],1.2% and 0.1%,0.8% and 0.1%,8.3% and 0.1%,1.9% and 0.1%,1.3% and 0.1%,4.2% and 0.1%
CCCCCCCCCCOC(=O)CCN(CCCCCO)CCC(=O)OCCCCCCCCCC [LB32],0.1%,0.1%,0.1%,0.1%,0.1%,0.1%
CCCCCCCCCCOC(=O)CCN(CCC(=O)OCCCCCCCCCC)CC(C)(C)CO [LB33],0.1%,0.1%,0.1%,0.1%,0.1%,0.1%
